The source made the active and inactive calls. The calls are words filed in the database; no cut-off is given here.
Assays:
NB-4 = assay: Antiproliferative activity against human NB4 cells after 72 hrs; format: functional, cell-based; conditions: NB-4, 72 h
IGROV-1 [1] = assay: Antiproliferative activity against human IGROV1 cells after 72 hrs; format: functional, cell-based; conditions: IGROV-1, 72 h
NCI-H460 [2] = assay: Antiproliferative activity against human H460 cells after 72 hrs; format: functional, cell-based; conditions: NCI-H460, 72 h
IGROV-1 [3] = assay: Antiproliferative activity against cisplatin-resistant human IGROV1 cells after 72 hrs; format: functional, cell-based; conditions: IGROV-1, 72 h
Histone deacetylase 2 = Histone deacetylase 2 (Homo sapiens, UniProt Q92769); assay: Inhibition of HDAC2 in human HeLa cells; format: cell-based
Sequence of Histone deacetylase 2 (Q92769 whole entry): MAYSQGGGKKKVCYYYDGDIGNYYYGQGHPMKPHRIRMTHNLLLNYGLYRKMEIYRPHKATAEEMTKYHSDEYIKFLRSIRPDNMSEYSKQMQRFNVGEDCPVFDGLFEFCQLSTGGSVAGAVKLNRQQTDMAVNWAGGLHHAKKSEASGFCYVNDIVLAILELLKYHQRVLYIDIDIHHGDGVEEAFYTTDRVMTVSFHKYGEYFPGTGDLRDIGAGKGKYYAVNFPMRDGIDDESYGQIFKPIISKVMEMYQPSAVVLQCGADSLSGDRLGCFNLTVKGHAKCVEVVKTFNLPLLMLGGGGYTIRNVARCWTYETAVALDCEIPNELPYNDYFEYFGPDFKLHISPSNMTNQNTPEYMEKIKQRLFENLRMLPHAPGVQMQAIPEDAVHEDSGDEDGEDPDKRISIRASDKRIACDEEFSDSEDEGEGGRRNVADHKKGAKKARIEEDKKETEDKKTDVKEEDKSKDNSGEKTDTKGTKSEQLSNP

HCT-116 [4] = assay: Antiproliferative activity against human HCT116 cells after 72 hrs; format: functional, cell-based; conditions: HCT-116, 72 h
IGROV-1 [5] = assay: Induction of apoptosis in human IGROV1 cells at IC80 after 72 hrs by TUNEL assay; format: functional
IGROV-1 [6] = assay: Cell cycle arrest in cisplatin-resistant human IGROV1 cells assessed as partial accumulation at G2/M phase at IC80 using propidium-iodide staining by flow-cytometry; format: functional, cell-based
IGROV-1 [7] = assay: Cell cycle arrest in human IGROV1 cells assessed as accumulation at sub-G1 phase at IC80 after 24 hrs using propidium-iodide staining by flow-cytometry; format: functional, cell-based
IGROV-1 [8] = assay: Antiproliferative activity against human IGROV1 cells after 72 hrs by cell counting; conditions: IGROV-1, 72 h
IGROV-1 [9] = assay: Cell cycle arrest in cisplatin-resistant human IGROV1 cells assessed as partial accumulation at S phase at IC80 using propidium-iodide staining by flow-cytometry; format: functional, cell-based
Mus musculus [10] = assay: Toxicity in athymic nude Swiss mouse bearing human IGROV1 cells assessed as body weight loss at 20 mg/kg, po QD administered 5 days a week for 4 weeks; format: organism-based, IGROV-1; set-up: dose 20 mg/kg, route oral; conditions: in vivo
IGROV-1 [11] = assay: Antitumor activity against human IGROV1 cells athymic nude Swiss mouse assessed as tumor volume inhibition at 20 mg/kg, po QD administered 5 days a week for 4 weeks; format: functional
IGROV-1 [12] = assay: Cell cycle arrest in cisplatin-resistant human IGROV1 cells assessed as partial accumulation at S phase at IC90 using propidium-iodide staining by flow-cytometry; format: functional, cell-based
IGROV-1 [13] = assay: Cell cycle arrest in human IGROV1 cells assessed as accumulation at sub-G1 phase at IC90 after 24 hrs using propidium-iodide staining by flow-cytometry; format: functional, cell-based
IGROV-1 [14] = assay: Induction of apoptosis in human IGROV1 cells at IC90 after 72 hrs by TUNEL assay; format: functional
Mus musculus [15] = assay: Toxicity in athymic nude Swiss mouse bearing human HCT116 cells assessed as body weight loss at 100 mg/kg, po QD administered 5 days a week for 4 weeks; format: organism-based, HCT-116; set-up: dose 100 mg/kg, route oral; conditions: in vivo
IGROV-1 [16] = assay: Cell cycle arrest in cisplatin-resistant human IGROV1 cells assessed as partial accumulation at G2/M phase at IC90 using propidium-iodide staining by flow-cytometry; format: functional, cell-based
HCT-116 [17] = assay: Antitumor activity against human HCT116 cells athymic nude Swiss mouse assessed as tumor volume inhibition at 20 mg/kg, po QD administered 5 days a week for 4 weeks; format: functional
NCI-H460 [18] = assay: Antitumor activity against human H460 cells athymic nude Swiss mouse assessed as tumor volume inhibition at 100 mg/kg, ip QD administered 5 days a week for 2 weeks; format: functional; conditions: route intraperitoneal
NCI-H460 [19] = assay: animal or person; format: functional, Homo sapiens; conditions: Mus musculus, route oral
Description: Antitumor activity against human H460 cells athymic nude Swiss mouse assessed as tumor volume inhibition at 100 mg/kg, po QD administered 5 days a week for 2 weeks

Mus musculus [20] = assay: Toxicity in athymic nude Swiss mouse bearing human HCT116 cells assessed as body weight loss at 20 mg/kg, ip QD administered 5 days a week for 4 weeks; format: organism-based, HCT-116; set-up: dose 20 mg/kg, route intraperitoneal; conditions: in vivo
Mus musculus [21] = assay: Toxicity in athymic nude Swiss mouse bearing human HCT116 cells assessed as body weight loss at 20 mg/kg, po QD administered 5 days a week for 4 weeks; format: organism-based, HCT-116; set-up: dose 20 mg/kg, route oral; conditions: in vivo
HCT-116 [22] = assay: Antitumor activity against human HCT116 cells athymic nude Swiss mouse assessed as tumor volume inhibition at 20 mg/kg, ip QD administered 5 days a week for 4 weeks; format: functional; conditions: HCT-116, ip, route intraperitoneal
Mus musculus [23] = assay: Toxicity in athymic nude Swiss mouse bearing human H460 cells assessed as body weight loss at 100 mg/kg, ip QD administered 5 days a week for 2 weeks; format: organism-based; set-up: dose 100 mg/kg, route intraperitoneal; conditions: in vivo

Compound | IC50 (NB-4) [nM] | IC50 (IGROV-1 [1]) [nM] | IC50 (NCI-H460 [2]) [nM] | IC50 (IGROV-1 [3]) [nM] | IC50 (Histone deacetylase 2) [nM] | IC50 (HCT-116 [4]) [nM] | Activity (IGROV-1 [5]) [%] | Activity (IGROV-1 [6]) | Activity (IGROV-1 [7]) | IC80 (IGROV-1 [8]) [nM] | Activity (IGROV-1 [9]) | other results
O=C(/C=C/c1ccc(-c2ccc3[nH]ccc3c2)cc1)NO | 6500 | 22100 | 14000 | 29300 | 1200 | – | – | – | – | – | – | –
O=Cc1ccc(-c2ccc(/C=C/C(=O)NO)cc2)cc1 | – | 12100 | – | 20300 | – | – | – | – | – | – | – | –
O=C(/C=C/c1ccc(-c2ccccc2)cc1)NO | 900 | 3500 | 5400 | 4000 | 820 | 1580 | – | – | – | – | – | –
O=C(/C=C/c1ccc(-c2ccc(Cl)cc2)cc1)NO | 760 | 610 | – | 1360 | 1860 | 510 | 77 | Active | Active | 2000 | Active | –
N#Cc1ccc(-c2ccc(/C=C/C(=O)NO)cc2)cc1 | – | 2700 | 5700 | 3200 | 330 | – | 90 | Active | Active | 10000 | Active | Activity (Mus musculus [10]): 0%; inhibition in vivo at 20 mg/kg (IGROV-1 [11]): 37%
O=C(/C=C/c1ccc(-c2cccs2)cc1)NO | – | 2800 | 2800 | 3200 | 450 | – | 90 | Active | Active | 7000 | Active | –
O=C(/C=C/c1cccc(-c2ccc(O)cc2)c1)NO | 2850 | > 10000 | 5600 | > 10000 | 320 | 1640 | – | – | – | – | – | –
N#Cc1ccc(-c2ccc(/C=C/C=C/C(=O)NO)cc2)cc1 | – | 1050 | 3300 | 3100 | 1200 | – | – | – | – | – | – | –
O=C(CCCCCCC(=O)Nc1ccccc1)NO [VORINOSTAT] | – | 2200 | – | 2200 | – | 310 | 15 | Active | Active | – | Active | Activity (IGROV-1 [12]): Active; Activity (IGROV-1 [13]): Active; Activity (IGROV-1 [14]): 45%; Activity (Mus musculus [15]): 4%; Activity (IGROV-1 [16]): Active
COc1ccc(-c2ccc(/C=C/C(=O)NO)cc2)cc1 | – | 750 | 3700 | 2300 | 1160 | 220 | 52 | Active | Active | 3000 | Active | inhibition in vivo at 20 mg/kg (HCT-116 [17]): 35%; inhibition in vivo at 100 mg/kg (NCI-H460 [18]): 39%; inhibition in vivo at 100 mg/kg (NCI-H460 [19]): 57%; Activity (Mus musculus [10]): 0%; Activity (Mus musculus [20]): 2%; Activity (Mus musculus [21]): 1%; inhibition in vivo at 20 mg/kg (HCT-116 [22]): 50%; inhibition in vivo at 20 mg/kg (IGROV-1 [11]): 71%; Activity (Mus musculus [23]): 4%
O=C(/C=C/C1CCC(c2ccc(O)cc2)CC1)NO (stereo not given) | 900 | 2500 | 2200 | 2600 | 310 | 370 | – | – | – | – | – | –
